Assay results taken from patent US10214542B2, “Modified macrocyclic compounds” (BAYER PHARMA AKTIENGESELLSCHAFT, priority 2015, dated 2019).
Several values for one entry are separate records, joined by “and”; a condition that tells them apart may be missing. Equal values may be shown once. Read-outs that look alike come from different tables or passages of the source. Marks after values point to notes of the source that are not given here.

Legend:
[1] = target: T1, human PTEFb (CDK9/Cyclin T1) (Homo sapiens, UniProt P50750); assay: Surface Plasmon Resonance PTEFb (Method 8); type: binding; details: 25° C., experimental parameters A-G per value; for Target resident time: 1/koff; for koff: read-out: Dissociation rate constant koff
T1 construct: purchased ProQinase, Freiburg, Germany
Text: 8. Surface Plasmon Resonance PTEFb
The ability of the compounds according to the invention to bind human PTEFb may be determined using surface plasmon resonance (SPR). KD values and koff values may be measured using a Biacore® T200 instrument (GE Healthcare, Uppsala, Sweden).
For SPR measurements, recombinant human PTEFb (CDK9/Cyclin T1 recombinant human active protein kinase purchased from ProQinase, Freiburg, Germany) is immobilized using standard amine coupling (Johnsson B et al, Anal Biochem. 1991 Nov. 1; 198(2):268-77). Briefly, carboxymethylated dextran biosensor chips (CM7, GE Healthcare) are activated with N-ethyl-N′-(3-dimethylaminopropyl)-carbodiimide hydrochloride (EDC) and N-hydroxysuccinimide (NHS) according to the supplier's instructions. Human PTEFb is diluted in 1×HBS-EP+ (GE Healthcare) and injected on the activated chip surface. Subsequently, a 1:1 solution of 1 M ethanolamine-HCl (GE Healthcare) and 1×HBS-EP is injected to block unreacted groups, resulting in approximately 4000 response units (RU) of immobilized protein. A reference surface is generated by treatment with NHS-EDC and ethanolamine-HCl. Compounds are dissolved in 100% dimethylsulfoxide (DMSO, Sigma-Aldrich, Germany) to a concentration of 10 mM and subsequently diluted in running buffer (1×HBS-EP+ pH 7.4 [generated from HBS-EP+ Buffer 10× (GE Healthcare): 0.1 M HEPES, 1.5 M NaCl, 30 mM EDTA and 0.5% v/v Surfactant P20], 1% v/v DMSO). For kinetic measurements, serial dilutions of compound (0.82 nM up to 2 μM) are injected over immobilized protein. Binding kinetics is measured at 25° C. with a flow rate of 50 μl/min in running buffer. Compound concentrations are injected for 60 s followed by a dissociation time of 1800 s. The resulting sensorgrams are double-referenced against the reference surface as well as against blank injections.
The double-referenced sensorgrams are fit to a simple reversible Langmuir 1:1 reaction mechanism as implemented in the Biacore® T200 evaluation software 2.0 (GE Healthcare). In cases were full compound dissociation has not occurred at the end of the dissociation phase, the Rmax parameter (response at saturation) is fit as local variable. In all other cases, Rmax is fit as global variable.
Slight variations of experimental parameters are indicated by letters (A-G): […]

[2] = target: T1, human PTEFb (CDK9/Cyclin T1); assay: Surface Plasmon Resonance PTEFb (Method 8); type: binding; details: 37° C., experimental parameters E; for Target resident time: 1/koff; for koff: read-out: Dissociation rate constant koff

T1 sequence (P50750 whole entry): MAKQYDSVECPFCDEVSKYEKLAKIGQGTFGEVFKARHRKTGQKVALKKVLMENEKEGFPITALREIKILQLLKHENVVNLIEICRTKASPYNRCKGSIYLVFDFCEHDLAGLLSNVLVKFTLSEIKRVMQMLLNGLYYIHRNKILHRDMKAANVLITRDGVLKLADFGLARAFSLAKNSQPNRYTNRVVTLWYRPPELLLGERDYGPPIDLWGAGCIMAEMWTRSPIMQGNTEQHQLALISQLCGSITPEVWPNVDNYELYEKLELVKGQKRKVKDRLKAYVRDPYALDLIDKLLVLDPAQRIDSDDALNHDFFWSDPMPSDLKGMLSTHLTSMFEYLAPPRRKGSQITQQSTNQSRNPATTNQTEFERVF
T1 sequence (O60563 whole entry partner): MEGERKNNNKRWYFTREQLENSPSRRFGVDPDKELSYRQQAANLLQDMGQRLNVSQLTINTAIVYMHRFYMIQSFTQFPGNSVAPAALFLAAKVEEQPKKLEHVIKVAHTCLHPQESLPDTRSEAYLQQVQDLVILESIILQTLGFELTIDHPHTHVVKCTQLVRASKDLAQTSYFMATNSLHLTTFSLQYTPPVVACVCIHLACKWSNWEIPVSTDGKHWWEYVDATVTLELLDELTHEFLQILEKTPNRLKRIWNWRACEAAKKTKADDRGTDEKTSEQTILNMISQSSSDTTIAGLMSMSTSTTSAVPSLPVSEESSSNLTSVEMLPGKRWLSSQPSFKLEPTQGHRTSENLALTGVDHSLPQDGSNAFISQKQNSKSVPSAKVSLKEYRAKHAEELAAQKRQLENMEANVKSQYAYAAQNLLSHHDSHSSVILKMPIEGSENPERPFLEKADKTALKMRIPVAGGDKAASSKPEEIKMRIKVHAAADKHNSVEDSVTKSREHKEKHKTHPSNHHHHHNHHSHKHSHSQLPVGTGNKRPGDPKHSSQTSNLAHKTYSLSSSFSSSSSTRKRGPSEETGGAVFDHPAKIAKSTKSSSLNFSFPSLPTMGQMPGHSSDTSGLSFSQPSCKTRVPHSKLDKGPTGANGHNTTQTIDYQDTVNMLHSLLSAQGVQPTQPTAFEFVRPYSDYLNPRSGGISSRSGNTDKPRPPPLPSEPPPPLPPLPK

`CN1CCCCOc2cc(F)ccc2-c2cc(ncc2F)Nc2cc(CS(C)(=N)=O)cc1n2` (racemic) [Example 11, (rac)-16,20-difluoro-6-methyl-9-[(S-methylsulfonimidoyl)methyl]-3,4,5,6-tetrahydro-2H-7,11-(azeno)-17,13-(metheno)-1,6,12,14-benzoxatriazacyclononadecine] was tested, and the Target resident time [1] was >666* min and the koff [1] was less than 2.5e-05 s⁻¹.

With `C[S+]([O-])Cc1cc2nc(c1)OCCCCCc1cc(F)ccc1-c1cc(ncc1F)N2` (racemic) [Example 19, (rac)-2,19-difluoro-9-[(methylsulfinyl)methyl]-14,15,16,17-tetrahydro-6H,13H-7,11-(azeno)-5,1-(metheno)-12,4,6-benzoxadiazacyclononadecine] the Target resident time [1] was 4.8* min and the koff [1] was 0.00345 s⁻¹.

For `CN1CCCCOc2cc(F)ccc2-c2nc(ncc2F)Nc2cc(CS(C)(=N)=O)cc1c2` (racemic) [Example 23, (rac)-16,20-difluoro-6-methyl-9-[(S-methylsulfonimidoyl)methyl]-3,4,5,6-tetrahydro-2H,12H-13,17-(azeno)-11,7-(metheno)-1,6,12,14-benzoxatriazacyclononadecine], the Target resident time [1] was 87.3* min and the koff [1] was 0.000191 s⁻¹.

With `CS(=N)(=O)Cc1cc2cc(c1)OCCCCNc1cc(F)ccc1-c1nc(ncc1F)N2` (racemic) [Example 16, (rac)-16,20-difluoro-9-[(S-methylsulfonimidoyl)methyl]-2,3,4,5-tetrahydro-1H-17,13-(azeno)-7,11-(metheno)-6,1,12,14-benzoxatriazacyclononadecine] the Target resident time [2] was 46.3* min and the koff [2] was 0.00036 s⁻¹.

Compound `CSCc1cc2nc(c1)OCCCCc1cc(F)ccc1-c1cc(ncc1F)N2` [Example 4, 2,18-Difluoro-9-[(methylsulfanyl)methyl]-13,14,15,16-tetrahydro-6H-7,11-(azeno)-5,1-(metheno)-12,4,6-benzoxadiazacyclooctadecine] has a Target resident time [1] of 14.6 min and a koff [1] of 0.00114 s⁻¹.

With `CN1CCCCNc2cc(F)ccc2-c2nc(ncc2F)Nc2cc(CS(C)(=N)=O)cc1c2.O=CO` (racemic) [Example 17, (rac)-16,20-difluoro-6-methyl-9-[(S-methylsulfonimidoyl)methyl]-1,2,3,4,5,6-hexahydro-12H-17,13-(azeno)-11,7-(metheno)-1,6,12,14-benzotetraazacyclononadecine; salt with formic acid] the Target resident time [2] was 115.7* min and the koff [2] was 0.000144 s⁻¹.

For `CC(C)(C)OC(=O)N=S(C)(=O)Cc1cc2nc(c1)Nc1cc(c(F)cn1)-c1ccc(F)cc1OCCCN2` (racemic) [Example 7, (rac)-tert-butyl[{[15,19-difluoro-2,3,4,5-tetrahydro-11H-10,6-(azeno)-16,12-(metheno)-1,5,11,13-benzoxatriazacyclooctadecin-8-yl]methyl}(methyl)oxido-λ^6-sulfanylidene]carbamate], the Target resident time [1] was >666* min and the koff [1] was less than 2.5e-05 s⁻¹.

In the case of `CS(=N)(=O)Cc1cc2cc(c1)OCCCCSc1cc(F)ccc1-c1nc(ncc1F)N2` (racemic) [Example 22, (rac)-16,20-difluoro-9-[(S-methylsulfonimidoyl)methyl]-2,3,4,5-tetrahydro-12H-17,13-(azeno)-11,7-(metheno)-6,1,12,14-benzoxathiadiazacyclononadecine], the Target resident time [2] was 17.5* min and the koff [2] was 0.000954 s⁻¹.

For `CS(=N)(=O)Cc1cc2nc(c1)OCCCCCc1cc(F)ccc1-c1cc(ncc1F)N2` (racemic) [Example 20, (rac)-2,19-difluoro-9-[(S-methylsulfonimidoyl)methyl]-14,15,16,17-tetrahydro-6H,13H-7,11-(azeno)-5,1-(metheno)-12,4,6-benzoxadiazacyclononadecine], the Target resident time [1] was 14.7* min and the koff [1] was 0.00113 s⁻¹.

In the case of `CC(C)(C)OC(=O)N=S(C)(=O)Cc1cc2cc(c1)OCCCCNc1cc(F)ccc1-c1nc(ncc1F)N2` (racemic) [Example 15, (rac)-tert-butyl[{[16,20-difluoro-2,3,4,5-tetrahydro-1H,12H-13,17-(azeno)-11,7-(metheno)-6,1,12,14-benzoxatriazacyclononadecin-9-yl]methyl}(methyl)oxido-λ^6-sulfanylidene]carbamate], the Target resident time [1] was > 666 min and 372.9 min, the “Dissociation rate constant koff” value [1] was 4.47e-05 s⁻¹ and the koff [1] was less than 2.5e-05 s⁻¹.

`CS(=O)(Cc1cc2nc(c1)Nc1cc(c(F)cn1)-c1ccc(F)cc1OCCCCN2)=NC(=O)OCc1ccccc1` (racemic) [Example 2, (rac)-Benzyl[{[16,20-difluoro-3,4,5,6-tetrahydro-2H,12H-11,7-(azeno)-13,17-(metheno)-1,6,12,14-benzoxatriazacyclononadecin-9-yl]methyl}(methyl)oxido-λ^6-sulfanylidene]carbamate] was tested, and the Target resident time [1] was 44.9 min and 33.1 min, the “Dissociation rate constant koff” value [1] was 0.000504 s⁻¹ and the koff [1] was 0.000371 s⁻¹.

Compound `C[S+]([O-])Cc1cc2nc(c1)OCCCCc1cc(F)ccc1-c1cc(ncc1F)N2` (racemic) [Example 5, (rac)-2,18-Difluoro-9-[(methylsulfinyl)methyl]-13,14,15,16-tetrahydro-6H-7,11-(azeno)-5,1-(metheno)-12,4,6-benzoxadiazacyclooctadecine] has a Target resident time [1] of 17.2 min and a koff [1] of 0.000968 s⁻¹.
